Our source for the IC50, muscle strength and myonecrosis values is patent publication US20250195518A1, “INDAZOLE COMPOUND AND PHARMACEUTICAL USE THEREOF” (Japan Tobacco Inc., priority 2022, published 2025).

T1 sequence (O60760 whole entry): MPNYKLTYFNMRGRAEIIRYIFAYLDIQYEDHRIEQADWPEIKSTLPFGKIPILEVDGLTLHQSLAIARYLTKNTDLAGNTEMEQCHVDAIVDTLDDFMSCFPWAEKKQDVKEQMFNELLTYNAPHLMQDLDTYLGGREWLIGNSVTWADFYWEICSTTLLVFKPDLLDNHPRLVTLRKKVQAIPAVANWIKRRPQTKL

The target in one assay is T1, human H-PGDS (Homo sapiens (Human), UniProt O60760). The assay can be described thus: Human H-PGDS binding inhibitory activity (AlphaLISA antagonistic assay). Conditions: His-tagged human H-PGDS 0.3 nmol/L, biotinylated H-PGDS inhibitor 45 nmol/L. As for the experimental part:
Experimental Example 1: Measurement of Human H-PGDS Binding Inhibitory Activity
The H-PGDS binding inhibitory activity of the test compound was measured by AlphaLISA antagonistic assay. A specific protocol is as follows.
In an AlphaPlate-384 Shallow well plate (Cat. 6008350, PerkinElmer) were added and mixed 240 nL/well of DMSO solution as a compound solution or a solvent control, 3 µL/well (final concentration: 45 nmol/L) of biotinylated H-PGDS inhibitor (see below for the production method) diluted with […] DMSO-containing Assay Buffer (50 mM HEPES-NaOH (pH 7.5), 2 mM GSH, 150 mM NaCl, 2 mM MgCl2, 0.005% Surfactant P20), and 2 μL/well (final concentration: 0.3 nmol/L) of His-tagged human H-PGDS (Cat. ATGP1557, ATgen) diluted with Assay Buffer. As a blank, 2 μL/well of Assay Buffer was added instead of His-tagged human H-PGDS. This plate was allowed to stand at room temperature for 60 min, and Nickel Chelate AlphaLISA Acceptor Beads (Cat. AL108C, Perkin Elmer) at 5 μL/well (final concentration: 20 μg/mL) were added and mixed. After allowing to stand at room temperature for 30 min under shading, AlphaScreen Streptavidin donor beads (Cat. 6760002S, Perkin Elmer) were added at 5 μL/well (final concentration: 30 μg/mL) and mixed. After allowing to stand at room temperature for 60 min under shading, AlphaLISA signals (excitation wavelength: 680 nm, measurement wavelength: 615 nm) were measured using Enspire (Perkin Elmer).
The H-PGDS binding inhibitory activity (inhibitory rate) of each test compound was calculated as follows, and the IC50 value was calculated from the inhibitory rate at two concentrations sandwiching 50%.
Compound `Cc1nn(-c2ncc(C(=O)N[C@H]3CC[C@H](C(C)(C)O)CC3)cn2)c2cc(F)ccc12` [Example 1, 2-(6-fluoro-3-methyl-1H-indazol-1-yl)-N-(trans-4-(2-hydroxypropan-2-yl)cyclohexyl)pyrimidine-5-carboxamide] gave a concentration for half-maximal inhibition (IC50) of 3 nM.

With `Cc1nn(-c2ncc(C(=O)N[C@H]3CC[C@H](CC(C)(C)O)CC3)cn2)c2cnccc12` [Example 3, N-(Trans-4-(2-hydroxy-2-methylpropyl)cyclohexyl)-2-(3-methyl-1H-pyrazolo[3,4-c]pyridin-1-yl)pyrimidine-5-carboxamide], the IC50 turned out to be 21 nM.

As for `Cc1nn(-c2ncc(C(=O)N[C@H]3CC[C@H](OCC(C)(C)O)CC3)cn2)c2ccccc12` [Example 4, N-(trans-4-(2-hydroxy-2-methylpropoxy)cyclohexyl)-2-(3-methyl-1H-indazol-1-yl)pyrimidine-5-carboxamide], the IC50 came out at 5 nM.

`CS(=O)(=O)CCCO[C@H]1CC[C@H](NC(=O)c2cnc(-n3nc(C(F)F)c4ccccc43)nc2)CC1` [Example 6, 2-(3-(difluoromethyl)-1H-indazol-1-yl)-N-(trans-4-(3-(methylsulfonyl)propoxy)cyclohexyl)pyrimidine-5-carboxamide]: the half-maximal inhibitory concentration (IC50) is 3 nM.

Take `Cc1nn(-c2ncc(C(=O)NC34CC(C(C)(C)O)(C3)C4)cn2)c2cc(F)ccc12` [Example 7, 2-(6-fluoro-3-methyl-1H-indazol-1-yl)-N-(3-(2-hydroxypropan-2-yl)bicyclo[1.1.1]pentan-1-yl)pyrimidine-5-carboxamide]: the half-maximal inhibitory concentration (IC50) was 11 nM.

In turn, `CC(C)(O)[C@H]1CC[C@H](NC(=O)c2cnc(-n3nc(C(F)F)c4ccncc43)nc2)CC1` [Example 9, 2-(3-(difluoromethyl)-1H-pyrazolo[3,4-c]pyridin-1-yl)-N-(trans-4-(2-hydroxypropan-2-yl)cyclohexyl)pyrimidine-5-carboxamide] returned an IC50 of 13 nM.

On to `Cc1nn(-c2ccc(C(=O)NC3CCCCC3)cc2)c2ccccc12` [Example 11], for which the IC50 amounted to 171 nM.

`Cc1nn(-c2ccc(C(=O)N[C@H]3CC[C@H](C(C)(C)O)CC3)cn2)c2ccccc12` [Example 15] showed a concentration for half-maximal inhibition (IC50) of 12 nM.

As to `CC(C)(O)[C@H]1CC[C@H](NC(=O)c2ccc(-n3nc(Cl)c4ccccc43)nc2)CC1` [Example 17], the half-maximal inhibitory concentration (IC50) came out at 27 nM.

On to `Cc1nn(-c2ncc(C(=O)N[C@H]3CC[C@H](O)CC3)cn2)c2ccccc12` [Example 18], for which the IC50 was 45 nM.

For the compound `CC(C)(O)[C@H]1CC[C@H](NC(=O)c2cnc(-n3nc(Cl)c4ccccc43)nc2)CC1` [Example 24], the IC50 worked out at 3 nM.

`COc1nn(-c2ncc(C(=O)N[C@H]3CC[C@H](O)CC3)cn2)c2ccccc12` [Example 27] yielded an IC50 of 225 nM.

In turn, `Cc1nn(-c2ccc(C(=O)N[C@H]3CC[C@H](O)CC3)cn2)c2cc(F)ccc12` [Example 39] had an IC50 of 71 nM.

`Cc1nn(-c2ccc(C(=O)N[C@H]3CC[C@H](C(C)(C)O)CC3)cn2)c2cc(F)ccc12` [Example 40] registered an IC50 of 7 nM.

`Cc1nn(-c2ccc(C(=O)N[C@H]3CC[C@H](O)CC3)cn2)c2c(F)cccc12` [Example 41] gave an IC50 of 374 nM.

With `Cc1nn(-c2ncc(C(=O)N[C@H]3CC[C@H](O)CC3)cn2)c2cccc(F)c12` [Example 42], the 50% inhibitory concentration (IC50) amounted to 200 nM.

`CC(C)(O)[C@H]1CC[C@H](NC(=O)c2cnc(-n3nc(C(F)(F)F)c4ccccc43)nc2)CC1` [Example 46] yielded an IC50 of 10 nM.

As to `Cc1nn(-c2ccc(C(=O)N[C@H]3CC[C@H](C(C)(C)O)CC3)cn2)c2cccc(F)c12` [Example 50], the 50% inhibitory concentration (IC50) was 74 nM.

Consider `Cc1nn(-c2ncc(C(=O)N[C@H]3CC[C@H](O)CC3)cc2F)c2ccccc12` [Example 54], for which the concentration for half-maximal inhibition (IC50) came out at 41 nM.

The compound `Cc1nn(-c2ccc(C(=O)N[C@H]3CC[C@H](OC4CCS(=O)(=O)CC4)CC3)cn2)c2cc(F)ccc12` [Example 80] showed an IC50 of 17 nM.

With `Cc1nn(-c2ncc(C(=O)N[C@H]3CC[C@H](C(C)(C)O)CC3)cn2)c2c(C#N)cccc12` [Example 95], the 50% inhibitory concentration (IC50) amounted to 144 nM.

Turning to `Cc1nc([C@H]2CC[C@H](NC(=O)c3cnc(-n4nc(C)c5ccc(F)cc54)nc3)CC2)no1` [Example 150], the 50% inhibitory concentration (IC50) amounted to 14 nM.

In turn, `Cc1nn(-c2ncc(C(=O)N[C@H]3CC[C@@](C)(O)CC3)cn2)c2cc(F)ccc12` [Example 204] returned an IC50 of 14 nM.

Turning to `CC(C)(O)C(=O)N1CCC(NC(=O)c2cnc(-n3nc(C(F)F)c4ccc(F)cc43)nc2)CC1` [Example 254], the IC50 worked out at 14 nM.

With `CC(C)(O)C12CC(NC(=O)c3cnc(-n4nc(C(F)F)c5ccccc54)nc3)(C1)C2` [Example 255], the IC50 is 7 nM.

For the next assay, the target named is T1, human H-PGDS. The assay can be described thus: Human H-PGDS inhibitory activity (enzyme reaction with PGH2, PGD2 ELISA). It counts as biochemical. Conditions: human recombinant H-PGDS 1.6 μg/mL, PGH2 50 μmol/L. As for the experimental part: Using the human H-PGDS expression plasmid DNA (pET28b/hH-PGDS) as a template, PCR (Polymerase Chain Reaction) was performed to amplify a DNA fragment containing human H-PGDS with a NotI recognition cleavage sequence immediately before the translation initiation codon and a BamHI recognition cleavage sequence immediately below the translation end codon. The purified DNA fragment was fused to pET15b (manufactured by Merck KGaA, model number 69661) digested with NotI and BamHI, by using In-Fusion HD Cloning Kit (manufactured by Takara Bio Inc., model number 639649). […] The base sequence of human H-PGDS cloned into the vector was determined by the Dye Terminator method using BigDye Terminator v3.1 Cycle Sequencing Kit (manufactured by Applied Biosystems, model number 4337456). The determined sequence was identical to the sequence of the protein translation region of human H-PGDS (Accession number su NM_014485.2) registered in the NCBI Reference Database. […]
The protein concentration of the human H-PGDS purified fraction was measured with Pierce 660 nm Protein Assay Reagent (manufactured by Thermo Fisher Scientific Inc., model number 22660). […] Human H-PGDS was detected by Western blotting using a rabbit anti-H-PGDS polyclonal antibody (manufactured by LifeSpan BioSciences, Inc, model number LS-B6886). […]
Regarding `C[C@@H](CC(=O)O)C12CCC(NC(=O)N3CCC(c4ncc(F)c5[nH]cc(F)c45)CC3)(CC1)CC2` (single isomer, unassigned) [enantiomer A], the 50% inhibitory concentration (IC50) was 5 nM.

On to `C[C@H](CC(=O)O)C12CCC(NC(=O)N3CCC(c4ncc(F)c5[nH]cc(F)c45)CC3)(CC1)CC2` (single isomer, unassigned) [enantiomer B], for which the IC50 was 6 nM.

For the next assay, the system named is mdx mice.
Assay: not given
Conditions: Non-patent Document 7; cited from earlier work.
As to `c1ccc(C(OC2CCN(CCCc3nn[nH]n3)CC2)c2ccccc2)cc1` [HQL-79], the muscle strength result was “increases muscle strength” and the myonecrosis result is reported as “suppresses myonecrosis”.
